Measurements from patent publication US5684026A, “Aminocyclopentane derivative” (priority 1994, dated 1997).

Legend:
Type in all cases: biochemical
[1] = biological target: β-Galactosidase (Bovine liver. EC 3.2.1.23); experiment: β-Galactosidase (Bovine liver) enzyme inhibition assay (o-nitrophenyl β-D-galactopyranoside); settings: pH 7.3, room temperature, 30 minutes
Method: (§1) By using a 96-well microplate, the absorbance (at 405 nm) of liberated p- or o-nitrophenol was measured with a microplate reader (MPR-4Ai, manufactured by Tosoh Corporation).
(§2) The enzymes employed herein [α-glucosidase (Baker's yeast), β-glucosidase (Almonds), α-galactosidase (E. coli), β-galactosidase (E. coli) and β-galactosidase (Bovine Liver)] were all purchased from Sigma.
(§3) The substrates (p- or o-nitrophenylglycoside) of these enzymes were all purchased from Sigma.
5) β-Galactosidase (Bovine liver. EC 3.2.1.23) [described in T. Aoyagi, T. Hazato, M. Kumagai, M. Hamada, T. Takeuchi and H. Umezawa, J. Antibiot., 28, 1006-1008 (1975)]
Into each well were introduced an aqueous solution of a sample (2 μl), a buffer (158 μl), a 20 mM solution of o-nitrophenyl β-D-galactopyranoside in a buffer (25 μl), a 100 mM 2-mercaptoethanol (10 μl) and a (5 mg/ml) enzyme solution in the buffer (5 μl) to give a total volume of 200 μl. After incubating at room temperature (20°-30° C.) for 30 minutes, the absorbance (A405) of o-nitrophenol liberated by this enzyme reaction was measured. To give the blank absorbance (Ablank), the sample (2 μl), the substrate (25 μl), the buffer solution (163 μl) and 2-mercaptoethanol (10 μl) were incubated in the same manner followed by the measurement of the absorbance. […] The IC50 was determined in the same manner as the one employed in the case of α-glucosidase.

[2] = biological target: T1, β-Galactosidase (E. Coli, EC. 3.2.1.23) (Escherichia coli, UniProt P00722); experiment: β-Galactosidase (E. coli) enzyme inhibition assay (o-nitrophenyl β-D-galactopyranoside)
T1 construct: purchased Sigma; host or cells: E. coli
T1 sequence (P00722 2-1024 limits assumed): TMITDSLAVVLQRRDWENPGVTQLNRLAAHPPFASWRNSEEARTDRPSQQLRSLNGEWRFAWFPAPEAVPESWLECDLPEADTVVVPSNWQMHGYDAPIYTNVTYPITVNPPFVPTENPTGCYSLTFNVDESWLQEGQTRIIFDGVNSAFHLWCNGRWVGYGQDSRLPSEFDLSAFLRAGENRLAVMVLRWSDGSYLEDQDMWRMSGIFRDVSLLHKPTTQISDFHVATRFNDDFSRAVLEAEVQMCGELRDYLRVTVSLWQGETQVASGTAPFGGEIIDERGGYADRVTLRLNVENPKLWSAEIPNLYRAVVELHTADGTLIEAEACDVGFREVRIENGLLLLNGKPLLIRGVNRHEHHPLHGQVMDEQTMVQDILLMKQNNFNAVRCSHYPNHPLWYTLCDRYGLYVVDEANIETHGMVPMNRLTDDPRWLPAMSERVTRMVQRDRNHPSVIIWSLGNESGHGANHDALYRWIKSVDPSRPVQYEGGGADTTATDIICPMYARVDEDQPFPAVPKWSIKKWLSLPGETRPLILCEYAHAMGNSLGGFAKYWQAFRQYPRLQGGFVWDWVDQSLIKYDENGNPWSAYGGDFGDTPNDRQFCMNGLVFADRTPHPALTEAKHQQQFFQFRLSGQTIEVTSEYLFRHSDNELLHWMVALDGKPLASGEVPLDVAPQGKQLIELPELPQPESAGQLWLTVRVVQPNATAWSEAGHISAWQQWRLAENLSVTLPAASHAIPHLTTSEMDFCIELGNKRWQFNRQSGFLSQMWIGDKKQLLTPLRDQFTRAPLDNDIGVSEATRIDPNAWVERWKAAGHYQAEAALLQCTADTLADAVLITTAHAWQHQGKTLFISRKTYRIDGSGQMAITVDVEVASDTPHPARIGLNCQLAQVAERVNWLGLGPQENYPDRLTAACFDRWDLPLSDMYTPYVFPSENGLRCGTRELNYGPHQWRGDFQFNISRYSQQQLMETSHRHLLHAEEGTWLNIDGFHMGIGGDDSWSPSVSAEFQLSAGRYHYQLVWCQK
Method: as §1, §2, §3
4) β-Galactosidase (E. Coli, EC. 3.2.1.23) [described in G. R. Craven, E. Steers, Jr. and C. B. Anfinsen, J. Biol. Chem., 240, 2468-2477 (1965)]
Into each well were introduced an aqueous solution of a sample (2 μl), a buffer (153 μl), a 20 mM solution of o-nitrophenyl β-D-galactopyranoside in a buffer (25 μl), a 100 mM 2-mercaptoethanol (10 μl) and a (10 μg/ml) enzyme solution in the buffer (10 μl) to give a total volume of 200 μl. After incubating at room temperature (20°-30° C.) for 30 minutes, the absorbance (A405) of o-nitrophenol liberated by this enzyme reaction was measured. To give the blank absorbance (Ablank), the sample (2 μl), the substrate (25 μl), the buffer solution (163 μl) and 2-mercaptoethanol (10 μl) were incubated in the same manner followed by the measurement of the absorbance. To give the control absorbance (Acontrol), on the other hand, water (2 μl), the substrate (25 μl), the buffer solution (153 μl), 2-mercaptoethanol (10 μl) and the enzyme solution (10 μl) were incubated in the same manner followed by the measurement of the absorbance. A 50 mM phosphate buffer solution (pH 7.3, prepared from KH2 PO4 and K2 HPO4, containing 1.3 mM of MgCl2) was employed as the buffer for the enzyme reaction. The IC50 was determined in the same manner as employed in the case of α-glucosidase.

[3] = test system: α-Galactosidase (E. Coli, EC. 3.2.1.22); experiment: α-Galactosidase enzyme inhibition assay (p-nitrophenyl α-D-galactopyranoside); settings: pH 6.5, room temperature, 15 minutes
Method: as §1, §2, §3
3) α-Galactosidase (E. Coli, EC. 3.2.1.22) [described in H. Suzuki, S-C. Li and Y-T. Li, J. Biol. Chem., 245, 781-786 (1970)]
Into each well were introduced an aqueous solution of a sample (1 μl), a buffer (74 μl), a 9.9 mM solution of p-nitrophenyl α-D-galactopyranoside in a buffer (20 μl) and a (50 μg/ml) enzyme solution in the buffer (5 μl) to give a total volume of 100 μl. After incubating the resulting mixture at room temperature (20°-30° C.) for 15 minutes, the reaction was ceased by adding a 0.2M borate buffer solution (pH 9.8, prepared from NaOH and H3 BO3, 100 μl). Then the absorbance (A405) of p-nitrophenol liberated by this enzyme reaction was measured. To give the blank absorbance (Ablank), the sample (1 μl), the substrate (20 μl) and the buffer solution (79 μl) were incubated in the same manner and the 0.2M borate buffer solution (100 μl) was added followed by the measurement of the absorbance. To give the control absorbance ([…]), on the other hand, water (1 μl), the substrate (20 μl), the buffer solution (74 μl) and the enzyme solution (5 μl) were incubated in the same manner and the borate buffer solution (100 μl) was added followed by the measurement of the absorbance. A 0.1M phosphate buffer solution (pH 6.5, prepared from KH2 PO4 and K2 HPO4) was employed as the buffer for the enzyme reaction. The IC50 was determined in the same manner as employed in the case of α-glucosidase.

[4] = biological target: T2, α-Glucosidase (Baker's yeast, EC 3.2.1.20) (Saccharomyces cerevisiae, UniProt P53341); experiment: α-Glucosidase enzyme inhibition assay (p-nitrophenyl α-D-glucopyranoside); settings: for IC50: pH 6.8, 37° C., 30 minutes, read-out: IC50 (M) α-Glucosidase (Baker's yeast)
T2 construct: purchased Sigma; host or cells: Baker's yeast
T2 sequence (P53341 whole entry): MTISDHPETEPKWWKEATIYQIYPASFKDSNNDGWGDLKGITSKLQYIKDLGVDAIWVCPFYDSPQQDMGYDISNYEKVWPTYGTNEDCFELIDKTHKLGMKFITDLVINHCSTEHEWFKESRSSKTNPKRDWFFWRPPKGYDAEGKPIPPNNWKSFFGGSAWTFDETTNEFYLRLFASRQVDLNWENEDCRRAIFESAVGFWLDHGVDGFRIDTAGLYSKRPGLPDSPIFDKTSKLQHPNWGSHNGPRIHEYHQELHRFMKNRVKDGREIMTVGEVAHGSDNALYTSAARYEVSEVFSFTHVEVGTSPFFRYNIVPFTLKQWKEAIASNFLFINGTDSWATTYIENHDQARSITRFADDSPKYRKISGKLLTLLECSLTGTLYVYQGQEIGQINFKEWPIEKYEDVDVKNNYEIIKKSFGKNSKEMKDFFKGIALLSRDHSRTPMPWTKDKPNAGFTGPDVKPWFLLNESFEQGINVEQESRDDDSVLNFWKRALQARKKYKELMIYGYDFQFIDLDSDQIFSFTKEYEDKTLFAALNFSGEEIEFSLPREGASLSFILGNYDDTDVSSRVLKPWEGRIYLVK
Method: as §1
(§4) Incubation was carried out at 37° C. by using a natural incubator (Compact NIB-10, manufactured by Iwaki Glass Co., Ltd.).
as §2, §3
1) α-Glucosidase (Baker's yeast, EC 3.2.1.20) [described in H. Halvorson and L. Ellias, Biochim. Biophys. Acta, 30, 28-40 (1958)]
Into each well were introduced an aqueous solution of a sample (1 μl), a 0.66 mM solution of p-nitrophenyl α-D-glucopyranoside in a buffer (98 μl) and a (0.4 mg/ml) enzyme solution in the buffer (1 μl) to give a total volume of 100 μl. After incubating at 37° C. for 30 minutes, the reaction was ceased by adding a 1M aqueous solution of sodium carbonate (100 μl). Then the absorbance (A405) of p-nitrophenol liberated by this enzyme reaction was measured. To give the blank absorbance (Ablank), the sample (1 μl) and the substrate (99 μl) were incubated in the same manner and an aqueous solution of sodium carbonate (100 μl) was added followed by the measurement of the absorbance. […] The sample at each concentration, the blank and the control were treated each in two wells at the same time. As the buffer, a 0.1M phosphate buffer solution (pH 6.8, prepared from KH2 PO4 and K2 HPO4) was employed.

[5] = biological target: β-Glucosidase (Almonds, EC 3.2.1.21); experiment: β-Glucosidase enzyme inhibition assay (p-nitrophenyl β-D-glucopyranoside); settings: for IC50: pH 5.0, 37° C., 45 minutes
Method: as §1, §4, §2, §3
2) β-Glucosidase (Almonds, EC 3.2.1.21) [described in A. Kobayashi, Agr. Biol. Chem., 26, 203-207 (1962)]
Into each well were introduced an aqueous solution of a sample (1 μl), a 0.33 mM solution of p-nitrophenyl β-D-glucopyranoside in a buffer (98 μl) and a (0.4 mg/ml) enzyme solution in the buffer (1 μl) to give a total volume of 100 μl. After incubating at 37° C. for 45 minutes, the reaction was ceased by adding a 1M aqueous solution of sodium carbonate (100 μl). Then the absorbance (A405) of p-nitrophenol liberated by this enzyme reaction was measured. To give the blank absorbance (Ablank), the sample (1 μl) and the substrate (99 μl) were incubated in the same manner and an aqueous solution of sodium carbonate (100 μl) was added followed by the measurement of the absorbance. […] As the buffer, a 0.1M acetate buffer solution (pH 5.0, prepared from NaOAc and AcOH) was employed. The IC50 was determined in the same manner as employed in the case of α-glucosidase.

Q: How did the IC50 [1] turn out when OC[C@@]1(O)[C@H](O)C(O)[C@@H]2OC(Nc3ccccc3)=N[C@@H]21 (stereo in doubt) [Compound 1-1D, (1R,5S,6R,7R,8S)-6-hydroxymethyl-3-phenylamino-2-oxa-4-azabicyclo[3.3.0]oct-3-ene-6,7,8-triol] was run?
A: 3 µM

Q: And the IC50 [2]?
A: > 300 µM

Q: What about the IC50 [3] of the same compound?
A: > 300 µM

Q: And the IC50 [4]?
A: 2.32e-06 M

Q: And the IC50 [5]?
A: > 300 µM

Q: With OC[C@@]1(O)[C@@H]2N=C(Nc3ccccc3)O[C@@H]2C(O)[C@@H]1O (stereo in doubt) [Compound 1-1L, (1S,5R,6S,7S,8R)-6-hydroxymethyl-3-phenylamino-2-oxa-4-azabicyclo[3.3.0]oct-3-ene-6,7,8-triol] as the compound, how does the IC50 [1] read?
A: 153 µM

Q: What about the IC50 [2] of the same compound?
A: > 300 µM

Q: And the IC50 [3]?
A: > 300 µM

Q: What about the “inhibitory activity against α-glucosidase (in words)” value ([4]; compared with deoxynojirimycin, summary of Tables 1 and 2) of the same compound?
A: remarkably strong inhibitory activities

Q: And the IC50 [4]?
A: 2.93e-08 M

Q: And the IC50 [5]?
A: > 300 µM

Q: What about the “inhibitory activity against β-glucosidase (in words)” value ([5]; summary of Table 1) of the same compound?
A: weak inhibitory activities
